Literature values in US9078925B2, “Pharmaceutical semi-solid composition of isotretinoin” (GALEPHAR PHARMACEUTICAL RESEARCH, INC., priority 2012, dated 2015).
Where two headings read alike, the source gives them in different places.

Assays:
[1] = not given; remark: listed apart in the source

- bioavailability after an oral intake (fasted conditions): 25%
- bioavailability after an oral intake (fed conditions): 40%
- time to reach steady-state concentrations (of treatment): 1 week
- solubility in water [1]: poorly soluble in water
SMILES: CC1=C(/C=C/C(C)=C/C=C/C(C)=C\C(=O)O)C(C)(C)CCC1 [Isotretinoin, 13-cis retinoic acid]
